This is an account of results in patent publication US20210393558A1, “METHODS AND COMPOSITIONS FOR PREVENTION AND TREATMENT OF PRESSURE ULCERS” (TECHNION RESEARCH AND DEVELOPMENT FOUNDATION LTD., priority 2017, published 2021).

For data set [1] the following is noted: 3%-cream applied on the skin, after 24 hours; cited from earlier work.
For data set [2] the following is noted: cited from earlier work.
The test system of data set [3] is NIH3T3 fibroblasts. In words: Membrane permeability (FITC-labeled 4 kDa dextran uptake, FACS) under damage-level 12% strain. Particulars: increasing concentrations of NaPy pre-treatment (0, 1, 5 mM, 4 hours), 12% strain 3 hrs. It counts as cell-based, murine. As to the method:
(§1) For each experiment, 300,000 cells were cultured 24 hours in parallel on 2-4 bioflexcell collagen-coated 6-well plates (Flexcell Inc., North Carolina). On the day of the experiment the cell growth media (with 0/1 mM NaPy) was replaced with media supplemented with different NaPy concentrations (0, 1 or 5 mM) and cells were incubated for 4 hours; this constitutes the pre-treatment of the cells. A four-hour pre-treatment was chosen as that is a clinically relevant time-scale during preparation e.g. before planned surgical procedures.
(§2) Each 6-well plate contained two wells with each of the three NaPy pre-treatment concentrations. After 4 hours, all but one of the bioflexcell plates were simultaneously subjected to damaging-level, sustained strain-loads of 12% radial stretching for 3 hours and one plate in each experiment was not stretched for control. […] Next, cells were centrifuged (900 rpm for 5 min) and resuspended in 0.5 ml of PBS within 12×75 mm polystyrene test tubes for use with fluorescence activated cell sorting (FACS).
(§3) Permeability of the plasma membrane was quantified by cell uptake of the small (4 kDa) FITC-labeled Dextran. Fluorescence intensity changes due to internalized FITC-labeled Dextran and auto fluorescence of over 20,000 cells per sample was measured using a fluorescence-activated cell sorting (FACS) Calibur system (BD Biosciences, New Jersey) with the fluorescence channel. […] For each pre-treatment (and growth media) condition 4 measurements were collected: strain-loaded cells with or without added dextran, and unstrained control cells with or without dextran; samples without dextran provide a control for native cell auto-fluorescence (AF). The percent change in dextran uptake is calculated by the mean value of the strained sample relative to the unstrained samples, after subtracting the auto-fluorescence for each. […]

Data set [4] concerns C2C12 myoblasts. The description is as above. The class given is cell-based, murine. As to the method: as §1, §2, §3
For data set [5] the following is noted: group given NaPy eye drops, 2 hours prior to extraction; control 0.145+/−0.06 mM; cited from earlier work.
Data set [6] relates to NIH3T3 fibroblasts. In words: Gap closure of damaged monolayers with low/medium-level stretching. The class given is cell-based, Mouse. To be noted: 0% stretching, post-injury NaPy 0, 1 or 5 mM. As to the method: (§4) Mouse myoblast or fibroblast cells (1×10^6 per well, previously grown media containing 1 mM NaPy) were seeded 1-3 days prior to performing a stretching experiment in a six-well (31-mm diameter) culture plate with an elastic, 0.51-mm thick, transparent and collagen-coated substrata bottom (Flexcell Inc., Burlington, N.C.). Cells were grown on the stretchable-bottom plate until a confluent monolayer had formed. The plates with cells were then mounted onto our stretching apparatus and radial stretching to tensile strains of 3% or 6% or 0% (no-stretch) control was applied Immediately following stretching, compressive deformation damage was induced in each monolayer using a rigid optic fiber (˜350 μm diameter). Cells at the center of each well were crushed, inducing an approximately circular cell-damage area with varying sizes (0.05-0.5 mm^2). Media was replaced to remove any cell debris and the fresh media contained varying concentrations of sodium pyruvate: 0, 1 or 5 mM. Then the time-dependent gap closure was evaluated to reveal kinematic features The stretching apparatus was mounted in the motorized microscope stage to facilitate for time-lapse imaging of progression of the gap closure. Cell viability throughout the prolonged experiments was ensured by maintaining 37° C., 5% CO2 and high humidity, using an incubator that enclosed the microscope (Life Imaging Services, Basel, Switzerland).
(§5) Time-lapse imaging was performed using a fully motorized, inverted fluorescence microscope (Olympus IX81, Tokyo, Japan) with a custom MATLAB 2012b (The MathWorks, Natick, Mass.) graphical user interface (GUI) module to automatically control lens positioning and collect images of the gap every 10 minutes for up to 24 hours. Images were taken using an XR Mega-10AWCL camera (Stanford Photonics Inc., Palo Alto, Calif.), using a 10×/NA 0.3 long working-distance, air immersion objective lens at a final magnification of 646.8 nm/pixel. A custom algorithm in MATLAB 2012b was used to automatically analyze the time-progression images of the gap area closure and quantify cell migration and gap closure progression, as described in Topman et al. (Micron 51:9-12; 2012); Toume et al. Int Wound J 14:698-703; 2017). Briefly, the time-dependent area was fit to a Richard's function, which is an asymmetric sigmoid, by minimizing the mean squared error. Using the fitted curve, the maximum migration rate was calculated, which is the maximal slope of the area vs. time, Richards fit. The normalized maximum migration rate was obtained by dividing the maximum migration rate by the initial gap area. In addition, the time for 90% gap area closure, which is indicative of the end of the en masse cell migration regime was obtained (Topman et al. 2012; Med Eng Phys 34:225-232).
(§6) Results of the different conditions were compared using a two-way analysis of variance (ANOVA) for unequal length samples; Statistical analysis was performed in MATLAB. The interaction parameter was found significant, thus the interactions between the sodium pyruvate concentration and the stretching level and were important; in cases where only the interaction parameter the interaction is considered ‘simple’ by typical definitions in statistical analysis. A one-way ANOVA was also performed in conjunction with post-hoc Tukey-Kramer tests to identify statistically significant differences levels of sodium pyruvate for each level of stretching and vice versa. A P-value lower than 0.05 was considered significant.
(§7) Both tested cell types, C2C12 myoblasts and NIH3T3 fibroblasts were cultured in media with 1 mM sodium pyruvate up to the time of infliction of compressive deformation damage (micro-gap formation) and concurrent application of radial stretching. […]

The test system of data set [7] is C2C12 myoblasts. Described as above. The class given is cell-based, Mouse. The procedure:
as §4, §5, §6, §7

Where [8] appears, read: adopted from the literature, model input.
[9] abbreviates: 1 mM NaPy with 3% stretching vs no NaPy.
[10] abbreviates: 5 mM NaPy with 3% stretching vs no NaPy.

Molecules are shown by their SMILES.

With `O=C(O)Cc1ccccc1Nc1c(Cl)cccc1Cl` [Diclofenac Sodium], the transdermal flux in data set [1] was 0.321-0.943 nmol/cm^2·h.

In the case of `CC(=O)C(=O)[O-].[Na+]` [NaPy, sodium pyruvate], the “Solubility in the aqueous phase of the dressing and tissues” value in data set [2] (setting [8]) is recorded as 100 mg/mL. Moreover, the “diffusivity in the aqueous phase of the dressing and tissues” value in data set [2] (setting [8]) is on record as 0.0005 mm^2/s. In data set [2] (setting [8]), the “free diffusivity in the aqueous phase of the dressing and tissues” value is on record as 0.001 mm^2/s. Besides, the “log Ko/W” value in data set [2] (input of the Kp equation) is −5.05. In the data set with NIH3T3 fibroblasts [3], the “damage to membrane integrity (uptake relative to control)” value is listed as “reduced damage to membrane integrity”. In addition, in the data set on C2C12 myoblasts [4] (NaPy pre-treatment 0, 1, 5 mM for 4 hours, then 12% sustained stretch 3 hrs), the “cell damage-induced uptake of dextran relative to control” value was “a reduction was observed in the cell damage-induced uptake of dextran relative to control that is proportional to the NaPy concentration”. For the same compound, in the data set on C2C12 myoblasts [4] (cultured in media containing 1 mM NaPy, pre-treated with 5 mM NaPy, 12% strain 3 hrs), the “strain-damage induced membrane poration” value is listed as “a reduction was observed in the strain-damage induced membrane poration to insignificant levels”. For the same compound, the “level of NaPy in corneal tissue” value in data set [5] was 350 to 525 µM. For the same compound, the gap closure rate entry in the data set with NIH3T3 fibroblasts [6] is “unaffected”; in the data set with C2C12 myoblasts [7] (0% stretching, post-injury NaPy 0, 1 or 5 mM), “unaffected”. The normalized gap-closure rate with C2C12 myoblasts [7] (1 mM NaPy post-injury with 3% stretching (16.3 without NaPy)) was determined as 20.5 % area/hr; in the data set with C2C12 myoblasts [7] (5 mM NaPy post-injury with 3% stretching (16.3 without NaPy)), 23.7 % area/hr. For the same compound, the “time to reach 90% gap coverage” value with C2C12 myoblasts [7] (1 mM NaPy with 3% stretching (9.2 hrs without NaPy)) came out at 7.3 h; in the data set on C2C12 myoblasts [7] (5 mM NaPy with 3% stretching (9.2 hrs without NaPy)), 6.3 h. For the same compound, the “decrease of time to reach 90% gap coverage” value in the data set with C2C12 myoblasts [7] (setting [9]) is given as 21%; in the data set on C2C12 myoblasts [7] (setting [10]), 31%. Also, the results for the “increase of normalized gap-closure rate” value in the data set on C2C12 myoblasts [7] (setting [9]) and in the data set on C2C12 myoblasts [7] (setting [10]) were 26% and 46%, respectively. For the same compound, in the data set on C2C12 myoblasts [7] (3% strain combined with post-injury exogenous NaPy supplement (1 or 5 mM)), the gap closure entry was “successfully accelerated gap closure in a concentration dependent and statistically significant manner”.
